Paper PMC4697807, “Novel Zn^2+ Modulated GPR39 Receptor Agonists Do Not Drive Acute Insulin Secretion in Rodents” (PLoS ONE, 2015)
Where two headings read alike, the source gives them in different places.

Columns and labels:
rGPR39 = molecular target: T1, rGPR39 (Rattus norvegicus, UniProt A0A8J8Y1V6); experiment: DMR label-free assay, HEK293s cells transfected with rat GPR39; format: cell-based
T1 sequence (A0A8J8Y1V6 1-456): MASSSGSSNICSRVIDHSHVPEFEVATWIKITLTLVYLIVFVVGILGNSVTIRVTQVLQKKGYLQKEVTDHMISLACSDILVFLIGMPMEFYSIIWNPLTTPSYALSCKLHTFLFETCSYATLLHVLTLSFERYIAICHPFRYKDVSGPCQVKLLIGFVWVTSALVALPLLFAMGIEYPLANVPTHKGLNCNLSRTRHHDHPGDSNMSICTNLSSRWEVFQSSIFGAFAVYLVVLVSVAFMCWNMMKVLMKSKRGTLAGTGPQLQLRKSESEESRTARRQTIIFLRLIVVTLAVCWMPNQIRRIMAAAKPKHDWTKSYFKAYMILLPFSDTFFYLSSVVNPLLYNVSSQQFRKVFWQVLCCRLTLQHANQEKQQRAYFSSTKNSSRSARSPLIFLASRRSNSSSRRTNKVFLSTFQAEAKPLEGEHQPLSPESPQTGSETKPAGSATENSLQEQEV
From the text: Full length human (AF034633), rat (DM091294) and mouse (BC085285) GPR39 (GeneArt–Life Technologies, Carlsbad, CA) were subcloned into the pIRESneo3 vector (Clontech, Mountain View, CA). The resulting expression vectors hGPR39-, rGPR39- and mGPR39-pIRESneo3 were transfected into HEK293s cells (ATCC CRL-1573) using Lipofectamine 2000 (Life Technologies). Individual clones were isolated using flow cytometry with a FACSVantage SE DIVA (Becton Dickinson, Franklin Lakes, NJ) and clones were chosen based on responses to Zn^2+ measured in a cAMP assay (see below). […] HEK293s-derived cell lines were cultured at 37°C, 10% CO2 and 95% humidity in DMEM supplemented with 10% FBS and 600 μg/ml Geneticin (Life Technologies). The mouse pancreas epithelial cell line NIT-1 (ATCC CRL-2055) with endogenous expression of GPR39 was cultured at 37°C, 5% CO2, and 95% humidity in Ham´s F12 (Life Technologies) supplemented with 10% FBS.
DMR assays were performed using an Epic instrument (Corning Inc., Corning, NY). 12,000 cells per well were cultured for 24 h in 384-well fibronectin-coated Epic biosensor plates (Corning). On the day of experiment, culture medium was removed and replaced with 30 μl buffer A (HBSS, HEPES 20 mM pH7.4, 1% DMSO, 0.01% BSA) using an EL406 (Bio-Tek). Plates were incubated at 26 °C for 1 h inside the Epic to allow for temperature equilibration. A baseline was read for 2 min, and then 15 μl compounds in buffer A were added using a CyBi-Well vario (CyBio) and DMR was detected during 45 min.
Concentration response data were fitted with a four parameter logistic fit using Eq 1, y=A+((B−A)/1+((C/x)^D))) (1) where A is no activation, B is full activation, C is the EC50 and D is the Hill slope.

GPR39 = molecular target: T2, GPR39 (Homo sapiens, UniProt O43194); experiment: Back-scattering interferometry (BSI) binding assay, HEK293s-hGPR39 membranes; design: Full length human (AF034633), rat (DM091294) and mouse (BC085285) GPR39; expressed in transfected cells; host or cells: HEK293s (ATCC CRL-1573), pIRESneo3 vector, selected clones
T2 sequence (O43194 1-453): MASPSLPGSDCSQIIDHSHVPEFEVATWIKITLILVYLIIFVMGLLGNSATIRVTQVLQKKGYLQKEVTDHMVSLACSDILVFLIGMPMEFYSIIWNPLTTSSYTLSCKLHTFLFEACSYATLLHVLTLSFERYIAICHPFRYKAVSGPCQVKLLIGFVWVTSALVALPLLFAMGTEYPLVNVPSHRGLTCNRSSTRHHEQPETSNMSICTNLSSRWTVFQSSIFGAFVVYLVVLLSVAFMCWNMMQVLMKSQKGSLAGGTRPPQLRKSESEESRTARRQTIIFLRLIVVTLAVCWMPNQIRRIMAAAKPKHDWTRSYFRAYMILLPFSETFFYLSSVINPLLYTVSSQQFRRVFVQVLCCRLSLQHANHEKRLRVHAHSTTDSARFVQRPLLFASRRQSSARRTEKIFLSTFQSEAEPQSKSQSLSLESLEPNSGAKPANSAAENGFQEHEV
Method: Membranes (1.3 mg protein/ml) from HEK293s-hGPR39 and untransfected HEK293s cells were diluted 11-fold in 50 mM Tris, pH 7.5, 5 μM ZnCl2, 0.3% DMSO. The compounds were diluted from 10 mM in DMSO to the final maximum stock concentration of 30 μM with 50 mM Tris, pH 7.5, 5 μM ZnCl2, 24.6 mM sucrose. A 3-fold serial dilution was performed with the compounds and refractive index-matched assay buffer, 50 mM Tris, pH 7.5, 5 μM ZnCl2, 24.6 mM sucrose, 0.3% DMSO. The compound serial dilutions were mixed 1:1 with either the GPR39 or wild type membrane fractions in a 96-well polypropylene microplate (Eppendorf, Hauppauge, NY). After a 2 hour incubation at room temperature, the plate was analyzed on a pre-commercial prototype BSI instrument (Molecular Sensing, Inc., Nashville, TN). Binding signal was expressed as the phase shift in the interference fringe patterns on a CMOS camera as measured in milliradians. The data from the wild type membrane fractions was subtracted from the GPR39-expressing fractions point by point to obtain the specific binding interaction of the compounds with GPR39 and fit to one-site binding or two-site binding models using built-in models in Graphpad Prism to determine K D values for each compound.

[1] = absence (w/o) of Zn^2+, read-out: EC50
[2] = presence of 5 μM Zn^2+, read-out: EC50
[3] = presence of 5 μM Zn^2+, read-out: pEC50 ± SD (converted)
[4] = presence of 5 μM Zn^2+, one site binding model, read-out: K D ± SE
[5] = Zn^2+ binding, two site binding model

Row | SMILES | EC50 (rGPR39; [1]) [nM] | EC50 (rGPR39; absence (w/o) of Zn^2+, read-out: pEC50 ± SD (converted)) [nM] | EC50 (rGPR39; [2]) [nM] | EC50 (rGPR39; [3]) [nM] | Kd (GPR39; [4]) [nM] | pK D1 (high affinity site) (GPR39; [5]) | pK D2 (low affinity site) (GPR39; [5]) | Kd (GPR39; Zn^2+ binding, two site binding model, read-out: K D1 (high affinity site) ± SE) [nM] | Kd (GPR39; Zn^2+ binding, two site binding model, read-out: K D2 (low affinity site) ± SE) [nM]
1 | N#Cc1ccc(OCCn2ccnc2)c(OCCn2ccnc2)c1 [AZ1395, 3,4-bis-(2-imidazol-1-ylethoxy)-benzonitrile] | 5100 | 5130 | 33 | 33.1 | 233 ± 70 | – | – | – | –
2 | Cc1nc2c(C(=O)O)cnn2c(O)c1Cc1ccc(Cl)cc1 [AZ4237, 6-[(4-chlorophenyl)methyl]-7-hydroxy-5-methyl-pyrazolo[1,5-a]pyrimidine-3-carboxylic acid] | > 33000 | – | 150 | 148 | 48 ± 18 | – | – | – | –
3 | Cc1nc(-c2nc3c(c(=O)[nH]2)CN(C(=O)c2cccc(Cl)c2F)CC3)cs1 [AZ7914, 6-(3-chloro-2-fluoro-benzoyl)-2-(2-methylthiazol-4-yl)-3,5,7,8-tetrahydropyrido-[4,3-d]pyrimidin-4-one] | 7400 | – | 150 | 148 | 192 ± 85 | – | – | – | –
4 | [Zn+2] [Zn^2+] | – | – | – | – | – | 6.27 | 3.68 | 530 | 211000
